{"source": "the NIST ThermoML archive (doi:10.1021/je201349k)", "conditions": "Liquid", "note": "± gives the expanded uncertainty stated by the source.", "data": [{"smiles": "CC(C)(C)N", "note": "[2-methyl-2-propanamine]", "values": [{"measurement": "vapor or sublimation pressure", "setting": "317.55 K", "result": "101 ± 0.86", "unit": "kPa"}]}, {"smiles": "CN(C)C=O", "note": "[dimethylformamide]", "values": [{"measurement": "vapor or sublimation pressure", "setting": "425.15 K", "result": "101 ± 0.86", "unit": "kPa"}]}, {"smiles": "CO", "note": "[methanol]", "values": [{"measurement": "vapor or sublimation pressure", "setting": "337.85 K", "result": "101 ± 0.86", "unit": "kPa"}]}]}
